Assay results reported in patent US8129355B2, “Ketone ligands for modulating the expression of exogenous genes via an ecdysone receptor complex” (priority 2002, dated 2012).
pEC50: −log10 of the molar value. Like-named read-outs stand apart in the source and are kept apart here.

Legend:
[1] = biological target: T1, Bombyx mori EcR (VP16 fusion, switch construct CVBE) with 6XEcRE LacZ reporter (Bombyx mori, UniProt P49881); assay: Z3 assay: β-galactosidase (LacZ) reporter gene fold induction in stably transformed human 293 kidney cells (clone Z3); format: cell-based
T1 construct: expressed in transfected cells; host or cells: Human 293 kidney (HEK-293) cells, retrovirally infected, clone Z3
T1 sequence (P49881 86-606 limits assumed): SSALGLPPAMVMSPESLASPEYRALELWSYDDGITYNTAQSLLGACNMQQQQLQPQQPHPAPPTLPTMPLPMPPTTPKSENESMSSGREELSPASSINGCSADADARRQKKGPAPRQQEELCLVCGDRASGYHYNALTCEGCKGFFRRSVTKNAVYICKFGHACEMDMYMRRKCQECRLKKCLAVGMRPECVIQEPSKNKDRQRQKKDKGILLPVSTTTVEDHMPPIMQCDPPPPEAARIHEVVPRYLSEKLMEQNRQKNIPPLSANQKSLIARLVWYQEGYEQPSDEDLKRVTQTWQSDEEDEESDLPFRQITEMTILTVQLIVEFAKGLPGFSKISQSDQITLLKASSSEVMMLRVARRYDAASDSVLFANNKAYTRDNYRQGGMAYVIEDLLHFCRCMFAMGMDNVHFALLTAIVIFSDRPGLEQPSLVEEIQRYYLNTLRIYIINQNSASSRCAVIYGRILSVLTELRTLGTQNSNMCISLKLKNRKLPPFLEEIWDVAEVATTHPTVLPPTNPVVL
T1 sequence (P19793 1-462 partner): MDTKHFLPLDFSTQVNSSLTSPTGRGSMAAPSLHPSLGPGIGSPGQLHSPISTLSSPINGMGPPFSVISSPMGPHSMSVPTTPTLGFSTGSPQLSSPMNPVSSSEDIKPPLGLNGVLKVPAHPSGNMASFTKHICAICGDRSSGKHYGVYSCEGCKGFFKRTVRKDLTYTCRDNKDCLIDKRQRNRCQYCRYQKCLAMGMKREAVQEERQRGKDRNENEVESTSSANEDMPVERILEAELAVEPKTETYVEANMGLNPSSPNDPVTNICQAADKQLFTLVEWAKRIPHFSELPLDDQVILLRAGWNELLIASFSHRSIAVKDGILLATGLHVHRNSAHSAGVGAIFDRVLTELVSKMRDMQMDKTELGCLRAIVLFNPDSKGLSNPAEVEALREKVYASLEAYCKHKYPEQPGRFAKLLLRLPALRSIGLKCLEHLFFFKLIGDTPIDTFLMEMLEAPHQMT
Text: Dr. F. Gage provided a population of stably transformed cells containing CVBE and 6XEcRE as described in Suhr, S. T., Gil, E. B., Senut M. C., Gage, F. H. (1998) Proc. Natl. Acad. Sci. USA 95, 7999-804. Human 293 kidney cells, also referred to as HEK-293 cells, were sequentially infected with retroviral vectors encoding first the switch construct CVBE, and subsequently the reporter construct 6XEcRE Lac Z. The switch construct contained the coding sequence for amino acids 26-546 from Bombyx mori EcR (BE) (Iatrou) inserted in frame and downstream of the VP16 transactivation domain (VBE). A synthetic ATG start codon was placed under the control of cytomegalovirus (CVBE) immediate early promoter and flanked by long terminal repeats (LTR). The reporter construct contained six copies of the ecdysone response element (EcRE) binding site placed upstream of LacZ and flanked on both sides with LTR sequences (6XEcRE).
Dilution cloning was used to isolate individual clones. Clones were selected using 450 ug/mL G418 and 100 ng/mL puromycin. Individual clones were evaluated based on their response in the presence and absence of test ligands. Clone Z3 was selected for screening and SAR purposes.
Human 293 kidney cells stably transformed with CVBE and 6XEcRE lack were maintained in Minimum Essential Medium (Mediates, 10-010-CV) containing 10% FBS (Life Technologies, 26140-087), […] G418 (Mediates, 30-234-CR), and […] (Sigma, P-7255), at 37° C. in an atmosphere containing 5% CO2 and were subculture when they reached 75% confluence.
Z3 cells were seeded into 96-well tissue culture plates at a concentration of 2.5×10^3 cells per well and incubated at 37° C. in 5% CO2 for twenty-four hours. Stock solutions of ligands were prepared in DMSO. Ligand stock solutions were diluted 100 fold in media and 50 μL of this diluted ligand solution (33 μM) was added to cells. The final concentration of DMSO was maintained at […] in both controls and treatments.
Reporter gene expression was evaluated 48 hours after treatment of cells, β-galactosidase activity was measured using Gal Screen™ bioluminescent reporter gene assay system from Tropix (GSY1000).
Flanking both constructs are long terminal repeats, G418 and puromycin are selectable markers, CMV is the cytomegalovirus promoter, VBE is coding sequence for amino acids 26-546 from Bombyx mori EcR inserted downstream of the VP16 transactivation domain, 6×EcRE is six copies of the ecdysone response element, lacZ encodes for the reporter enzyme β-galactosidase. Suhr, S. T., Gil, E. B., Senut M. C., Gage, F. H. (1998) Proc. Natl. Acad. Sci. USA 95, 7999-804. Swevers, L., Drevet, J. R., Lunke, M. D., Iatrou, K. (1995) Insect Biochem. Mol. Biol. 25, 857-866.

[2] = biological target: T2, GAL4 DBD-CfEcR(DEF)/VP16AD-MmRXRE (Choristoneura fumiferana, UniProt O77240); assay: cell-based; conditions: for 13B3 Rel Max FI: maximum fold induction at any concentration relative to that of GS-E ligand
T2 sequence (O77240 1-513): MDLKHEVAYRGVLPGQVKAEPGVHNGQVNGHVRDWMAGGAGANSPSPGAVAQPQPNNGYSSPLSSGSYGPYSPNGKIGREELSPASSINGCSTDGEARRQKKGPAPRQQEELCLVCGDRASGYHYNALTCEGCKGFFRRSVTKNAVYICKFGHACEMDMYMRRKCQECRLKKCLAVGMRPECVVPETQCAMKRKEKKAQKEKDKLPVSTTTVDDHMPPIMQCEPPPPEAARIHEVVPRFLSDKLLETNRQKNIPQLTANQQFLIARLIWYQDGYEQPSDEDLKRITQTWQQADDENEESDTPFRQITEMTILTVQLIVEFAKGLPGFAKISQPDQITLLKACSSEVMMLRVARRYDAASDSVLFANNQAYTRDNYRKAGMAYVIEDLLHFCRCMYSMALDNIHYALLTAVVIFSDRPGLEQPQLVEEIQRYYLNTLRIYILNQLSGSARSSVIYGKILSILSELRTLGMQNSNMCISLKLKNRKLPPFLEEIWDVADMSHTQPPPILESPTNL
Text: GAL4 DBD-CfEcR(DEF)/VP16AD-MmRXRE: The wild-type D, E, and F domains from spruce budworm Choristoneura fumiferana EcR (“CfEcR-DEF”; SEQ ID NO: 1) were fused to a GAL4 DNA binding domain (“Gal4 DBD1-147”; nucleotides 31 to 471 of SEQ ID NO: 2) and placed under the control of the SV40e promoter of pM vector (PT3119-5, Clontech, Palo Alto, Calif.). The D and E domains from Mus Musculus RXR (“MmRXR-DE”; SEQ ID NO: 10) were fused to the transactivation domain from VP16 (“VP16AD”; SEQ ID NO: 5) and placed under the control of the SV40e promoter of the pVP16 vector (PT3127-5, Clontech, Palo Alto, Calif.).
CHO cells were transienty transfected with transcription cassettes for GAL4 DBD-CfEcR(DEF) and for VP16AD-MmRXRE controlled by SV40e promoters. Stably transfected cells were selected using Hygromycin. Individually isolated CHO cell clones were transiently transfected with a GAL4 RE-luciferase reporter (pMR-Luc, Stratagene, La Jolla, Calif.). The 13B3 clone was selected using Zeocin.
Cells were trypsinized and diluted to a concentration of 2.5×10^4 cells mL. 100 μL of cell suspension was placed in each well of a 96 well plate and incubated at 37° C. under 5% CO2 for 24 h. Ligand stock solutions were prepared in DMSO and diluted 300 fold for all treatments. Dose response testing consisted of 8 concentrations ranging from 33 μM to 0.01 μM.
Luciferase reporter gene expression was measured 48 h after cell treatment using Bright-Glo™ Luciferase Assay System from Promega (E2650). Luminescence was detected at room temperature using a Dynex MLX microtiter plate luminometer.
Fold inductions were calculated from single dose testing by dividing relative light units (RLU) in ligand treated cells by RLU in DMSO treated cells. BC50s were calculated from dose response data using a three-parameter logistic model.

[3] = single dose 33 μM; ligand treated / DMSO treated cells
[4] = maximum fold induction at any concentration relative to that of GS-E ligand

CC(=O)NC(C(=O)c1ccccc1)c1ccccc1 (centres unmarked) [Example 94]
Fold Induction Average, Z3 Assay (33 μM) [1, 3]: 1
Fold Induction Average, 13B3 Assay (33 μM) [2]: 1

COc1cccc(C(=O)NC(C(=O)c2cc(C)cc(C)c2)C(C)(C)C)c1C (centres unmarked) [Example 115]
Fold Induction Average, Z3 Assay (33 μM) [1, 3]: 15
Fold Induction Average, 13B3 Assay (33 μM) [2]: 1

COc1cccc(C(=O)NC2(C(=O)c3cccc(C)c3)CCN(C(=O)OC(C)(C)C)CC2)c1C [Example 109]
Fold Induction Average, Z3 Assay (33 μM) [1, 3]: 3
Fold Induction Average, 13B3 Assay (33 μM) [2]: 0

CCc1ccc(C(=O)NC2(C(=O)c3cc(C)cc(C)c3)CCCCC2)cc1 [Example 175]
CC50 ([1]; average; dose response, three-parameter logistic model; read-out: Z3 LC50): 1.51 µM
Z3 Rel Max FI [1, 4]: 0.63

COc1cccc(C(=O)NC2(C(=O)c3cc(C)cc(C)c3)CCN(C(=O)OC(C)(C)C)CC2)c1C [Example 110]
Fold Induction Average, Z3 Assay (33 μM) [1, 3]: 1
Fold Induction Average, 13B3 Assay (33 μM) [2]: 2

COc1cccc(C(=O)NC(C)(Cc2ccccc2)C(=O)c2ccc(C)cc2)c1C (centres unmarked) [Example 16]
Fold Induction Average, Z3 Assay (33 μM) [1, 3]: 10
Fold Induction Average, 13B3 Assay (33 μM) [2]: 0

COc1cccc(C(=O)NC2(C(=O)c3cccc(C)c3)CCCC2)c1C [Example 2]
Z3 Rel Max FI [1, 4]: 0.46
fold induction at 33 µM ([1]; read-out: Fold Induction Average, Z3 Assay (33 μM)): 786
CC50 ([1]; read-out: Z3 LC50; average; dose response, three-parameter logistic model): 3.38 µM
pEC50 [2]: < 4.48
fold induction at 33 µM ([2]; CHO, read-out: Fold Induction Average, 13B3 Assay (33 μM)): 2620
13B3 Rel Max FI [2]: 0.24

Cc1nc2ncc(C(=O)NC3(C(=O)c4ccccc4)CCCC3)c(C)n2n1 [Example 103]
Fold Induction Average, 13B3 Assay (33 μM) [2]: 0

COc1cccc(C(=O)NC2(C(=O)c3ccccc3C)CC2)c1C [Example 101]
Fold Induction Average, Z3 Assay (33 μM) [1, 3]: 2
Fold Induction Average, 13B3 Assay (33 μM) [2]: 2

Cc1ccc(C(=O)NC(C(=O)c2ccccc2)C(C)(C)C)cc1 (centres unmarked) [Example 96]
Fold Induction Average, Z3 Assay (33 μM) [1, 3]: 1
Fold Induction Average, 13B3 Assay (33 μM) [2]: 0

COc1cccc(C(=O)NC2(C(=O)c3cccc(C)c3)CC2)c1C [Example 9]
Fold Induction Average, Z3 Assay (33 μM) [1, 3]: 12
Fold Induction Average, 13B3 Assay (33 μM) [2]: 0

COc1ccc(C(=O)C(C)(CC(C)C)NC(=O)c2cccc(OC)c2C)cc1 (centres unmarked) [Example 118]
Fold Induction Average, Z3 Assay (33 μM) [1, 3]: 1
Fold Induction Average, 13B3 Assay (33 μM) [2]: 0

COc1ccc(C(=O)C2(NC(=O)c3cccc(OC)c3C)CCCC2)cc1 [Example 41]
Fold Induction Average, Z3 Assay (33 μM) [1, 3]: 4
Fold Induction Average, 13B3 Assay (33 μM) [2]: 2

Cc1cccc(C(=O)NC(C(=O)c2ccccc2)C(C)(C)C)c1C (centres unmarked) [Example 97]
Fold Induction Average, Z3 Assay (33 μM) [1, 3]: 1
Fold Induction Average, 13B3 Assay (33 μM) [2]: 0

Cc1c(C(=O)NC2(C(=O)c3ccccc3)CCCC2)oc2ccccc12 [Example 102]
Fold Induction Average, Z3 Assay (33 μM) [1, 3]: 1
Fold Induction Average, 13B3 Assay (33 μM) [2]: 1

COc1cccc(C(=O)NC(C)(C)C(=O)c2ccccc2)c1 [Example 107]
Fold Induction Average, Z3 Assay (33 μM) [1, 3]: 1
Fold Induction Average, 13B3 Assay (33 μM) [2]: 2

COc1cccc(C(=O)NC2(C(=O)c3ccccc3C)CCCC2)c1C [Example 39]
Fold Induction Average, Z3 Assay (33 μM) [1, 3]: 30
Fold Induction Average, 13B3 Assay (33 μM) [2]: 24

COc1cccc(C(=O)NC2(C(=O)c3ccc(C)cc3)CC2)c1C [Example 24]
Fold Induction Average, Z3 Assay (33 μM) [1, 3]: 11
Fold Induction Average, 13B3 Assay (33 μM) [2]: 87

Cc1ccccc1C(=O)NC(C)(C)C(=O)c1ccccc1 [Example 105]
Fold Induction Average, Z3 Assay (33 μM) [1, 3]: 1
Fold Induction Average, 13B3 Assay (33 μM) [2]: 3

CCC(CC)(NC(=O)c1cccc(OC)c1C)C(=O)c1ccccc1C [Example 36]
Fold Induction Average, Z3 Assay (33 μM) [1, 3]: 4
Fold Induction Average, 13B3 Assay (33 μM) [2]: 0

COc1cccc(C(=O)C2(NC(=O)c3cccc(OC)c3C)CCCC2)c1 [Example 5]
pEC50 [2]: < 4.48
13B3 Rel Max FI [2]: 0.02

CCc1ccc(C(=O)NC2(C(=O)c3ccccc3)CCCC2)cc1 [Example 3]
pEC50 [2]: < 4.48
13B3 Rel Max FI [2]: 0.00
